# Measurements from patent publication US20210393742A1, “LONG-ACTING INTERLEUKIN-15 RECEPTOR AGONIST IN COMBINATION WITH ANOTHER PHARMACOLOGICALLY ACTIVE AGENT” (Nektar Therapeutics, priority 2018, published 2021).
# How the values were obtained:
# [1] = tested on: STAT5 phosphorylation in KHYG-1 cells; experiment: Phosphorylation of STAT5 in KHYG-1 cells (Example 7); assay type: cell-based, human; conditions: 10 minutes
# Description: KHYG-1 cells were cultured in RPMI-1640 medium supplemented with 20% FBS, 2 mM L-glutamine, and 20 ng/mL IL-2 (Complete growth medium) in a humidified incubator at 37° C. and 5% CO2.
# One day prior to treatment with test compounds, cells were seeded at a density of 500,000 viable cells/ml in Complete growth medium and incubated overnight under normal growth conditions. On the day of the assay, KHYG-1 cells were washed 3 times with DPBS, resuspended in assay medium (RPMI-1640 medium supplemented with 20% FBS, 2 mM L-glutamine), and incubated for 4-5 hours at 37° C., 5% CO2. Cells were adjusted to the appropriate density (8×10^5 cells/mL) in assay medium and 50,000 cells/well were aliquoted into wells of a 96-well plate (View-Plate 96, Perkin-Elmer).
# KHYG-1 cells were stimulated with IL-15 or a long-acting IL-15 receptor agonist (mono(mPEG-butanamide)IL-15) followed by incubation at 37° C., 5% CO2 for 10 minutes. Treated cells were lysed on ice.
# Detection of phospho-STAT5 protein levels in cell lysates was performed using the Phospho(Tyr694)/Total STAT5a,b Assay Whole Cell Lysate kit (MSD product #K15163D). Relative light unit (RLU) signal corresponding to phosphor-STAT5 was collected using a Sector® Imager 2400 plate reader (MSD) with the results provided in FIG. 10A.
# CD56+ human NK cells = experiment: Dose response of human NK cell proliferation in CFSE labeled PBMCs (Example 8); assay type: cell-based; conditions: 5 days
# Description: Human peripheral blood mononuclear cell (PBMCs) labeled with a CFSE preparation were incubated for 5 days in vitro in the presence of increasing doses of rhIL-15 (dose range 1 ng/ml-100 ng/ml, 5 point, 3 fold dilutions) or a long-acting IL-15 receptor agonist (mono(mPEG-butanamide)IL-15) (dose range 10 ng/ml-1000 ng/ml, 5 point, 3 fold dilutions). After the incubation period, cell proliferation as indicated by the decrease of CFSE in the cells that had undergone cell doublings was measured with flow cytometry measuring CFSE levels in CD56+ human NK cells within the PBMCs preparation.
# [2] = tested on: STAT5 phosphorylation in lymphocytes; experiment: STAT5 phosphorylation in lymphocytes at time points after administration in mice, flow cytometry; assay type: in vivo
# From the text: Conventional approaches, such as those involving radiolabeling a compound, administering the compound in vivo, and determining its clearance, can be used to assess whether a compound proposed to be a long-acting, IL-15 receptor agonist is “long-acting” (i.e., has a clearance that is longer than that of IL-15 administered in the same in vivo system). For the purposes herein, the long-acting nature of a long-acting IL-15 receptor agonist may be, and is typically determined using flow cytometry to measure STAT5 phosphorylation in lymphocytes at various time points after administration of the agonist to be evaluated in mice. As a reference, the signal is lost by around 24 hours with IL-15, but is sustained for a period greater than that for a long-acting IL-15 agonist.
# Daudi B cell lymphoma [3] = experiment: Survival in Daudi B cell lymphoma xenograft model, combination with rituximab (Example 1); assay type: in vivo, mice; conditions: after about 30 days; rituximab 40 mg/kg IP, days 14 and 17
# Description: At day 0, SCID mice were intravenously injected with 1×10^7 Daudi cells. The mice were divided into four groups. On days 14 and 17 post-Daudi cell injection, the groups were treated by injection as follows: Group 1: isotype control antibody, Group 2: 40 mg/kg IP rituximab, Group 3: 0.3 mg/kg mono(methoxyPEG-N-butanamide)40 kD interleukin-15 (a long-acting IL-15 receptor agonist), Group 4: 40 mg/kg IP rituximab and 0.3 mg/kg SC mono(methoxyPEG-N-butanamide)40 kD interleukin-15 (combination).
# The survival rate was determined by measuring the onset of hind limb paralysis as a surrogate parameter.
# Daudi B cell lymphoma [4] = experiment: Survival in Daudi B cell lymphoma xenograft model, combination with daratumumab (Example 3); assay type: in vivo, mice; conditions: post tumor injection; daratumumab 0.5 mg/kg IP day 14; agonist 0.3 mg/kg SC days 14, 21, 28
# Description: SCID mice (N=8/group) inoculated intravenously with 1×10^7 Daudi B cell lymphoma cells were treated with a single dose of daratumumab (0.5 mg/kg, IP, 14 days after inoculation) and a total of three doses of mono(methoxyPEG-N-butanamide)40 kD interleukin-15 (0.3 mg/kg, SC, administered 14, 21 and 28 days after tumor inoculation). Also evaluated were untreated mice as a control and mice treated with daratumumab as a single agent therapy. Survival of tumor-inoculated mice was measured by body condition scoring as endpoint marker. Results are provided graphically in FIG. 5.
# NK cells [5] = experiment: NKG2A and NKG2D surface expression on bone marrow NK cells of Daudi lymphoma bearing mice (Example 4); assay type: in vivo; conditions: bone marrow day 24; Conjugate 1 0.3 mg/kg SC days 14 and 21; antibody 0.5 mg/kg IP day 14
# Description: (§1) Balb/c mice bearing Daudi B cell lymphoma tumors in the bone marrow (n=6/group) were intraperitoneally administered a single 0.5 mg/kg dose of the human CD38 protein targeting clinical antibody daratumumab (DARZALEX®, Janssen Biotech) or a nonspecific control antibody with a matching isotype on day 14 after Daudi cell intravenous inoculation. Additional groups were administered mono(methoxyPEG-N-butanamide)40 kD interleukin-15 (Conjugate 1) subcutaneously at a dose of 0.3 mg/kg as a single agent on days 14 and 21 after Daudi cell inoculation, or administered a combination treatment of Conjugate 1 administered subcutaneously at doses of 0.03 mg/kg or 0.3 mg/kg on days 14 and 21 after Daudi cell inoculation and daratumumab administered intraperitoneally at a dose of 0.5 mg/kg on day 14 after Daudi cell inoculation.
# Three days following the second Conjugate 1 administration (day 24 after Daudi inoculation), bone marrow was collected and the NK cell fraction was measured by flow cytometry in total bone marrow. Expression of the cell surface activating receptor NKG2D and the inhibitory checkpoint receptor NKG2A are shown in FIGS. 7A and 7B, respectively.
# NK cells [6] = experiment: CD16 surface expression on bone marrow NK cells of Daudi lymphoma bearing mice (Example 10); assay type: in vivo; conditions: bone marrow day 24
# Description: as §1, with “were treated with (i) mono(mPEG-N-butanamide)40” for “were administered mono(methoxyPEG-N-butanamide)40”, “1) administered” for “1)”, “or (ii)” for “or administered”
# Three days following the second Conjugate 1 administration (day 24 after Daudi inoculation), bone marrow was collected and the NK cell fraction was measured by flow cytometry in total bone marrow. The fraction of NK cells expressing the cell surface CD16 receptor that is known to mediate antibody dependent cellular cytotoxicity mechanism in the presence of tumor targeting antibodies, and the change in CD16 expression per cell basis on NK cells are shown in FIGS. 13A and 13B, respectively.
# NK cells [7] = experiment: Granzyme B expression per cell in bone marrow NK cells of Daudi lymphoma bearing mice (Example 11); assay type: in vivo; conditions: bone marrow day 24; Conjugate 1 0.3 mg/kg; antibody 0.5 mg/kg
# Description: as §1, with “daratumumab (DARZALEX®),” for “daratumumab (DARZALEX®,”, “were treated with (i) mono(mPEG-N-butanamide)40” for “were administered mono(methoxyPEG-N-butanamide)40”, “1) administered” for “1)”, “or (ii)” for “or administered”
# Three days following the second Conjugate 1 administration (day 24 after Daudi inoculation), bone marrow was collected and the NK cell fraction was measured by flow cytometry in total bone marrow.
# Daudi B cell lymphoma [8] = experiment: Daudi cell counts in bone marrow, low and high doses (Example 14); assay type: in vivo, mice; conditions: day 24, single agent
# Description: SCID mice (N=6/group) were intravenously inoculated with 10 million Daudi cells on Day 0 and treated with a single dose of a lower or higher dose of daratumumab (0.05 mg/kg or 5 mg/kg IP, 14 days following Daudi cell inoculation) and two doses of either lower or higher dose mono(methoxyPEG-N-butanamide)interleukin-15 (compound 1) (0.03 mg/kg or 0.6 mg/kg intravenously, one dose at each of 14 and 21 days after inoculation). Mice were also treated with the single agent therapies: daratumumab (0.05 mg/kg or 5 mg/kg IP, 14 days following Daudi cell inoculation) or two doses of mono(methoxyPEG-N-butanamide)40 kD interleukin-15 (compound 1) (0.03 mg/kg or 0.6 mg/kg intravenously, 14 and 21 days after inoculation). Daudi cell numbers in the bone marrow were assessed three days following the second dose of mono(methoxyPEG-N-butanamide)40 kD interleukin-15 (day 24) by flow cytometry as shown in FIGS. 17A and 17B.
# [9] = Conjugate 1 0.3 mg/kg, antibody 0.5 mg/kg
substance,measurement,setting,value
"rhIL-15: recombinant human interleukin-15 (SEQ ID NO: 1), unconjugated comparator [reference compound]",phosphorylation of STAT5,[1],dose-dependent phosphorylation of STAT5
same,EC50 (ng/ml)-% proliferation,CD56+ human NK cells,2.28 ng/mL
same,Emax-% proliferation,CD56+ human NK cells,69.6%
same,time by which the STAT5 phosphorylation signal is lost,[2],around 24 hours
"rituximab: anti-CD20 monoclonal antibody (Rituxan®, Genentech) [reference compound]",survival,Daudi B cell lymphoma [3],0%
"Daratumumab: anti-CD38 monoclonal antibody (DARZALEX®, Janssen Biotech) [reference compound]",median survival,Daudi B cell lymphoma [4],28.5 days
same,"% NK cells expressing NKG2A (mean, n = 6)",NK cells [5],54.83%
same,"% NK cells expressing NKG2D (mean, n = 6)",NK cells [5],10.22%
same,Fraction of NK cell expressing cell surface CD16 (mean value),"NK cells [6]; Conjugate 1 0.3 mg/kg SC days 14 and 21, antibody 0.5 mg/kg IP day 14",81%
same,CD16 mean fluorescence intensity (MFI mean value),NK cells [6]; [9],448
same,Relative CD16 expression compared to untreated condition,NK cells [6]; [9],No increase (1x)
same,Granzyme B mean fluorescence intensity (MFI mean value),NK cells [7],272
same,Relative Granzyme B expression compared to untreated condition,NK cells [7],No increase (0.7x)
same,intra-bone marrow tumor cells depleted,Daudi B cell lymphoma [8]; high dose (daratumumab 5 mg/kg; compound 1 0.6 mg/kg),58%
same,intra-bone marrow tumor cells depleted,Daudi B cell lymphoma [8]; low dose (daratumumab 0.05 mg/kg; compound 1 0.03 mg/kg),30%
